Test results taken from patent US20250186656A1, “SHAPE MORPHING HYDROGEL ACTUATORS AND CONSTRUCTS” (Case Western Reserve University, priority 2022, published 2025).

What was measured:
[1] = test system: NIH 3T3 cell-laden bilayer constructs (cell-generated forces, actin polymerization); experiment: Cytochalasin D treatment of cell-laden bilayer constructs; type: cell-based
Source text: To accomplish bilayer printing, two syringes were loaded into the 3D printer: the first contained only reconstituted OMA microgels (cell-free bioink); the second contained the cell-laden bioink. For bilayer rectangles, a 25 mm×25 mm×0.2 mm square was printed with the cell-free bioink. Three cell-laden rectangles measuring 18 mm×4 mm×0.6 mm were then printed directly on top of the cell-free square, spaced 4 mm apart. After crosslinking constructs with UV light, the cell-free layer was cut with a razor blade to match the geometry of the cell-laden rectangles, forming bilayer rectangles. Dead controls were generated by incubating cells in acetone for 30 minutes before forming the cell-laden bioink.
To further illustrate the role of cell-generated forces in the observed spatiotemporal changes, the effect of Cytochalasin D, a known inhibitor of actin polymerization, was studied. Cytochalasin D was weighed and dissolved in sterile dimethyl sulfoxide (DMSO) at a concentration of 5 mM and stored at 4° C. Bilayer rectangles were printed and cultured in culture media supplemented with 0.1% v/v Cytochalasin D, resulting in a final Cytochalasin D concentration of 5 μM. Half of the media was replaced every day, with fresh Cytochalasin D added at 0.1% v/v each time. To ensure that any change in behavior is being caused by Cytochalasin D and not DMSO, four bilayer rectangles were cultured in culture media with 0.1% v/v DMSO. These media conditions were also compared to bilayer rectangles cultured in normal culture media.
After culture duration was complete, samples were fixed overnight in 10% neutral buffered formalin at room temperature. Samples were then dehydrated through one-hour incubations in 70% ethanol, 95% ethanol, 100% ethanol, 1:1 mixture of ethanol and xylenes, and two separate 100% xylenes. Samples were then submerged in molten paraffin for at least 24 hours before being embedded in paraffin blocks. 5-μm sections were obtained from blocks using a microtome and mounted on microscope slides. Hematoxilyn and eosin (H&E) sections were stained with hematoxilyn for 2 minutes followed by counterstaining with eosin for 30 seconds. Safrananin O and fast green sections were stained with 0.1% Safranin O for 5 minutes followed by counterstaining with 0.05% fast green for 1 minute. Alcian blue and nuclear fast red sections were stained with alcian blue ([…]) for 30 minutes followed by counterstaining with nuclear fast red for 5 minutes.
Dissection microscope images were used to measure bending angle as described in FIG. 72. Briefly, a circle with crosshairs was superimposed on each image using Microsoft Powerpoint. […] Using this method, a construct that has bent into a half circle is measured as 180 degrees, while a construct whose ends are touching is measured as 360 degrees. […]

cells = experiment: Cytocompatibility of UV absorber HMAP (cell viability); type: cell-based; conditions: all the tested concentrations

C=C1[C@@H](C)[C@H]2[C@H](Cc3ccccc3)NC(=O)[C@]23[C@H](OC(C)=O)/C=C/[C@@](C)(O)C(=O)[C@@H](C)C/C=C/[C@H]3[C@@H]1O [Cytochalasin D]
macroscopic shape change of bilayer constructs ([1]; 5 μM in growth medium, over duration of culture (14 days)): no macroscopic changes in shape | cell death (live/dead) ([1]; 5 μM, day 14): no sign of cell death | cell morphology (live/dead images) ([1]; 5 μM, day 14): more rounded | fibrous border formation (H&E histology) ([1]; 5 μM, day 14): unable to form this fibrous border

CC(=O)c1ccc(O)c(C)c1 [HMAP, 4′-hydroxy-3′-methylacetophenone]
cell viability (cells): > 90%
